Measurements published in patent publication US20090105305A1, “Therapeutic Agents - 550” (AstraZeneca AB, priority 2006, published 2009).

What follows are compounds tested against T1, human Fatty Acid Synthase (Homo sapiens, UniProt P49327) (assay: Human FAS enzyme assay (decrease in NADPH fluorescence)). Conditions: % inhibition at a concentration of 100 micromolar.
T1 construct: made in house
Format: biochemical
Outline: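 In-house human FAS (0.4 μg) was preincubated 15 min at RT with compound and NADPH (added at 166.6 μM) in 0.1 M Tris pH 7.5, 1 mM glutathione, 0.05% BSA. Malonyl-/acetyl-CoA (500/150 μM in substrate mix) was then added for 60 min. Readout was NADPH fluorescence loss (ex 340/em 460) over a time-zero read, with IC50 from a sigmoid fit.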

T1 sequence (P49327 whole entry): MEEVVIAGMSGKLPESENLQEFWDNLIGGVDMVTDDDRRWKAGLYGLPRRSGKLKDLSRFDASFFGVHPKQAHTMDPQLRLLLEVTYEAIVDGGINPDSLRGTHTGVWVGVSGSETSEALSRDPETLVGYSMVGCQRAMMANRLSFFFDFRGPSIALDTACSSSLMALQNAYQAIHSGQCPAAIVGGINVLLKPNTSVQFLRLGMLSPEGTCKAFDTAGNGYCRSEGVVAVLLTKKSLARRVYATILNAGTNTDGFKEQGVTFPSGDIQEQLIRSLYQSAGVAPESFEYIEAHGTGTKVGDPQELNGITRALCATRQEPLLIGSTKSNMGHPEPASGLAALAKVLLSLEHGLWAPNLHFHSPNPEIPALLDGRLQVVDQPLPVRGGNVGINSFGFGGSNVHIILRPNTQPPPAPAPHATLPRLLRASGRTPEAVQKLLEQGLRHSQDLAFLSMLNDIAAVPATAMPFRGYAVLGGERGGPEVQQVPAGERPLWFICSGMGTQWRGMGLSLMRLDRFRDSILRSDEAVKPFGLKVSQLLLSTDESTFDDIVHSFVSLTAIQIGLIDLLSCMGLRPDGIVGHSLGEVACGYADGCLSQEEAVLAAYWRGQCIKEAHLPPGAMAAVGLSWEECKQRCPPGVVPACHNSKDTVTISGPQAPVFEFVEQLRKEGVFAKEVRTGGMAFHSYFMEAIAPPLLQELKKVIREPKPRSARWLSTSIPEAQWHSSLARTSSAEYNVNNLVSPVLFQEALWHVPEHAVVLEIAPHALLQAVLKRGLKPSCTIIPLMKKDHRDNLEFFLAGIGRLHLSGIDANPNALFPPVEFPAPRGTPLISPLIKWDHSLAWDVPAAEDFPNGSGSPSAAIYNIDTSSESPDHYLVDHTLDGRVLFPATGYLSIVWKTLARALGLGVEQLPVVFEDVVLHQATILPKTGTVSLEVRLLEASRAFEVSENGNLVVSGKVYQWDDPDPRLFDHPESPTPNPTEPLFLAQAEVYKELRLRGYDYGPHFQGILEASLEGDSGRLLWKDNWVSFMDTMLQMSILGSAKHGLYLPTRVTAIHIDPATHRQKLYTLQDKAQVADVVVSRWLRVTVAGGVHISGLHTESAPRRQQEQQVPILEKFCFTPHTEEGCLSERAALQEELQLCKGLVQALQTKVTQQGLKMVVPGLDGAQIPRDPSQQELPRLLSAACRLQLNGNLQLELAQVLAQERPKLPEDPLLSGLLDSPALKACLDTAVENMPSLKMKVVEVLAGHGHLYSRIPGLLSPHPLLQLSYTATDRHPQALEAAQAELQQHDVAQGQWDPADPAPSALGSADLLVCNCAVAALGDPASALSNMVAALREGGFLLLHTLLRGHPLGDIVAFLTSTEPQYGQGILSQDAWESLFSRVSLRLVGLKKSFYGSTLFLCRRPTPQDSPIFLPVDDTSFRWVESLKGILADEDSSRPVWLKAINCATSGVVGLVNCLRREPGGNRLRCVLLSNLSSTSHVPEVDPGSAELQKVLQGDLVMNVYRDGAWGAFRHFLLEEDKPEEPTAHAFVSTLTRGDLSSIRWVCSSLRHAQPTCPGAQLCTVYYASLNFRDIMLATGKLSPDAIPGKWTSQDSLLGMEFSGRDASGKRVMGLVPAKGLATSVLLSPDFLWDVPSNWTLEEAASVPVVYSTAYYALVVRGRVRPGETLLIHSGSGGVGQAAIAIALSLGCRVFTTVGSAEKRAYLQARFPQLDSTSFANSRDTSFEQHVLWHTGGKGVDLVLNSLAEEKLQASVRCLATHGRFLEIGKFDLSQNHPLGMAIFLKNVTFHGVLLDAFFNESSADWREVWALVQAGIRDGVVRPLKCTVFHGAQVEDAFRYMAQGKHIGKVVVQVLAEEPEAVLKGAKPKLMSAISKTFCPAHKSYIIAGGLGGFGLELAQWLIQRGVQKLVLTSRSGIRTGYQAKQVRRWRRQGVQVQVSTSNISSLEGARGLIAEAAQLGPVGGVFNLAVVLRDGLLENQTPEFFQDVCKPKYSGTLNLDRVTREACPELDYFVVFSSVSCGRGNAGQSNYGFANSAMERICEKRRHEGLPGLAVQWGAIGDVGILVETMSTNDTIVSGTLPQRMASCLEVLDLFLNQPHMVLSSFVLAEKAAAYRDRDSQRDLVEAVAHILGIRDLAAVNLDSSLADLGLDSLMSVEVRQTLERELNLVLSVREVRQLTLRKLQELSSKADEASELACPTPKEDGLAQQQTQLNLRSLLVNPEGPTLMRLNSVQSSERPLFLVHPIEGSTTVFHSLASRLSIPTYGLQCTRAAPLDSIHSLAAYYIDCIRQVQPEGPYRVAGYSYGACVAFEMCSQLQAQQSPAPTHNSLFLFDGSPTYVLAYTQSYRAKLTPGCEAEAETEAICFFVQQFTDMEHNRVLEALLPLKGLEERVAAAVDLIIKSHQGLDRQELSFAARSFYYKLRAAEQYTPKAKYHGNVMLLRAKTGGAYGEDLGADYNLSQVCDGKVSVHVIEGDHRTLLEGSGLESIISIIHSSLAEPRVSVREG

| inhibition at 100 µM [%] | SMILES |
| --- | --- |
| 83 | Cc1ccc(C(=O)N2CCC(c3ccc(C#N)cc3)CC2)cc1NS(=O)(=O)c1cn(C)nc1C [Example 139, N-[5-[4-(4-cyanophenyl)piperidine-1-carbonyl]-2-methyl-phenyl]-1,3-dimethyl-pyrazole-4-sulfonamide] |
| 100 | Cc1ccc(C(=O)N2CCC(c3ccc(C#N)cc3)CC2)cc1NS(=O)(=O)c1ccn(C)n1 [Example 140, N-[5-[4-(4-cyanophenyl)piperidine-1-carbonyl]-2-methyl-phenyl]-1-methyl-pyrazole-3-sulfonamide] |
| 93 | Cc1ccc(C(=O)N2CCC(c3ccc(C#N)cc3)CC2)cc1NS(=O)(=O)CCCNCc1cccnc1 [Example 141, N-[5-[4-(4-cyanophenyl)piperidine-1-carbonyl]-2-methyl-phenyl]-3-(pyridin-3-ylmethylamino)propane-1-sulfonamide] |
| 98 | CCn1ncc(S(=O)(=O)Nc2cc(C(=O)N3CCC(c4ccc(C#N)cc4)CC3)ccc2C)c1C [Example 142, N-[5-[4-(4-cyanophenyl)piperidine-1-carbonyl]-2-methyl-phenyl]-1-ethyl-5-methyl-pyrazole-4-sulfonamide] |
| 88 | COC(=O)CCS(=O)(=O)Nc1cc(C(=O)N2CCC(c3ccc(C#N)cc3)CC2)ccc1C [Example 144, Methyl 3-[[5-[4-(4-cyanophenyl)piperidine-1-carbonyl]-2-methyl-phenyl]sulfamoyl]propanoate] |
| 97 | Cc1ccc(C(=O)N2CCC(c3ccc(C#N)cc3)CC2)cc1NS(=O)(=O)c1cnn(C)c1 [Example 145, N-[5-[4-(4-cyanophenyl)piperidine-1-carbonyl]-2-methyl-phenyl]-1-methyl-pyrazole-4-sulfonamide] |
| 90 | C=CCS(=O)(=O)Nc1cc(C(=O)N2CCC(c3ccc(C#N)cc3)CC2)ccc1C [Example 146, N-(5-(4-(4-cyanophenyl)piperidine-1-carbonyl)-2-methylphenyl)prop-2-ene-1-sulfonamide] |
| 100 | CCC1(CS(=O)(=O)Nc2cc(C(=O)N3CCC(c4ccc(C#N)cc4)CC3)ccc2C)NC(=O)NC1=O (centres unmarked) [Example 148, N-[5-[4-(4-cyanophenyl)piperidine-1-carbonyl]-2-methyl-phenyl]-1-(4-ethyl-2,5-dioxo-imidazolidin-4-yl)methanesulfonamide] |
| 85 | Cc1ccc(C(=O)N2CCC(c3ccc(C#N)cc3)CC2)cc1NS(=O)(=O)c1c(C)noc1C [Example 149, N-[5-[4-(4-cyanophenyl)piperidine-1-carbonyl]-2-methyl-phenyl]-3,5-dimethyl-1,2-oxazole-4-sulfonamide] |
| 88 | Cc1ccc(C(=O)N2CCC(c3ccc(C#N)cc3)CC2)cc1NS(=O)(=O)CC(O)CN(C)C (centres unmarked) [Example 150, N-[5-[4-(4-cyanophenyl)piperidine-1-carbonyl]-2-methyl-phenyl]-3-dimethylamino-2-hydroxy-propane-1-sulfonamide] |
| 81 | Cc1ccc(C(=O)N2CCC(c3ccc(C#N)cc3)CC2)cc1NS(=O)(=O)CCC(=O)O [Example 151, 3-[[5-[4-(4-cyanophenyl)piperidine-1-carbonyl]-2-methyl-phenyl]sulfamoyl]propanoic acid] |
| 87 | Cc1ccc(C(=O)N2CCC(c3ccc(C#N)cc3)CC2)cc1NS(=O)(=O)c1c(C)nn(C)c1C [Example 152, N-[5-[4-(4-cyanophenyl)piperidine-1-carbonyl]-2-methyl-phenyl]-1,3,5-trimethyl-pyrazole-4-sulfonamide] |
| 97 | CC(=O)N1CCC(S(=O)(=O)Nc2cc(C(=O)N3CCC(c4ccc(C#N)cc4)CC3)ccc2C)C1 (centres unmarked) [Example 153, 1-acetyl-N-[5-[4-(4-cyanophenyl)piperidine-1-carbonyl]-2-methyl-phenyl]pyrrolidine-3-sulfonamide] |
| 99 | Cc1ccc(C(=O)N2CCC(c3ccc(C#N)cc3)CC2)cc1NS(=O)(=O)C1CCN(S(C)(=O)=O)C1 (centres unmarked) [Example 154, N-[5-[4-(4-cyanophenyl)piperidine-1-carbonyl]-2-methyl-phenyl]-1-methylsulfonyl-pyrrolidine-3-sulfonamide] |
| 84 | Cc1ccc(C(=O)N2CCC(c3ccc(Cl)cc3)CC2)cc1NS(C)(=O)=O [Example 155, N-[5-[4-(4-chlorophenyl)piperidine-1-carbonyl]-2-methyl-phenyl]methanesulfonamide] |
| 74 | CNC(=O)c1ccc(C2CCN(C(=O)c3ccc(C)c(NS(C)(=O)=O)c3)CC2)cc1 [Example 156, 4-[1-(3-methanesulfonamido-4-methyl-benzoyl)-4-piperidyl]-N-methyl-benzamide] |
| 78 | Cc1ccc(C(=O)N2CCC(c3ccc(C(F)(F)F)cc3)CC2)cc1NS(C)(=O)=O [Example 157, N-[2-methyl-5-[4-[4-(trifluoromethyl)phenyl]piperidine-1-carbonyl]phenyl]methanesulfonamide] |
| 81 | Cc1ccc(C2CCN(C(=O)c3ccc(C)c(NS(C)(=O)=O)c3)CC2)cc1 [Example 158, N-[2-methyl-5-[4-(4-methylphenyl)piperidine-1-carbonyl]phenyl]methanesulfonamide] |

| inhibition at 100 µM [%] | SMILES |
| --- | --- |
| 80 | CSc1ccc(C(=O)N2CCC(c3ccc(C#N)cc3)CC2)cc1NS(C)(=O)=O [Example 159, N-[5-[4-(4-cyanophenyl)piperidine-1-carbonyl]-2-methylsulfanylphenyl]methanesulfonamide] |
| 89 | CSc1ccc(C(=O)N2CCC(c3ccc(C#N)cc3)CC2)cc1NS(=O)(=O)Cc1ccccc1 [Example 160, N-[5-[4-(4-cyanophenyl)piperidine-1-carbonyl]-2-methylsulfanylphenyl]-1-phenylmethanesulfonamide] |
| 80 | COCc1ccc(C(=O)N2CCC(c3ccc(C#N)cc3)CC2)cc1NS(C)(=O)=O [Example 161, N-[5-[4-(4-cyanophenyl)piperidine-1-carbonyl]-2-(methoxymethyl)phenyl]methanesulfonamide] |
| 86 | COc1ccc(C2CCN(C(=O)c3ccc(C)c(NS(C)(=O)=O)c3)CC2)cc1 [Example 162, N-[5-[4-(4-methoxyphenyl)piperidine-1-carbonyl]-2-methylphenyl]methanesulfonamide] |
| 85 | Cc1ccc(C(=O)N2CCC(c3ccc(CNS(C)(=O)=O)cc3)CC2)cc1NS(C)(=O)=O [Example 163, N-[[4-[1-(3-methanesulfonamido-4-methylbenzoyl)piperidin-4-yl]phenyl]methyl]methanesulfonamide] |
| 83 | CC(=O)NCc1ccc(C2CCN(C(=O)c3ccc(C)c(NS(C)(=O)=O)c3)CC2)cc1 [Example 164, N-[[4-[1-(3-methanesulfonamido-4-methylbenzoyl)piperidin-4-yl]phenyl]methyl]acetamide] |
| 76 | Cc1ccc(C(=O)N2CCC(c3ccc(CO)cc3)CC2)cc1NS(C)(=O)=O [Example 165, N-[5-[4-[4-(hydroxymethyl)phenyl]piperidine-1-carbonyl]-2-methylphenyl]methanesulfonamide] |
| 96 | CCS(=O)(=O)Nc1cc(C(=O)N2CCC(c3ccc(C#N)cc3)CC2)c(C)cc1C [Example 166, N-[5-[4-(4-cyanophenyl)piperidine-1-carbonyl]-2,4-dimethylphenyl]ethanesulfonamide] |
| 87 | Cc1nc(-c2ccc(C3CCN(C(=O)c4ccc(C)c(NS(C)(=O)=O)c4)CC3)cc2)no1 [Example 167, N-[2-methyl-5-[4-[4-(5-methyl-1,2,4-oxadiazol-3-yl)phenyl]piperidine-1-carbonyl]phenyl]methanesulfonamide] |
| 75 | Cc1ccc(C(=O)N2CCC(c3ccc(-c4nnco4)cc3)CC2)cc1NS(C)(=O)=O [Example 168, N-[2-methyl-5-[4-[4-(1,3,4-oxadiazol-2-yl)phenyl]piperidine-1-carbonyl]phenyl]methanesulfonamide] |
| 90 | Cc1ccc(C(=O)N2CCC(c3ccc(Br)cc3)CC2)cc1NS(C)(=O)=O [Example 169, N-[5-[4-(4-bromophenyl)piperidine-1-carbonyl]-2-methylphenyl]methanesulfonamide] |
| 74 | Cc1ccc(C(=O)N2CCC(c3ccc(-c4nccs4)cc3)CC2)cc1NS(C)(=O)=O [Example 170, N-[2-methyl-5-[4-[4-(1,3-thiazol-2-yl)phenyl]piperidine-1-carbonyl]phenyl]methanesulfonamide] |
| 85 | Cc1ccc(C(=O)N2CCC(c3ccc(-c4ncon4)cc3)CC2)cc1NS(C)(=O)=O [Example 171, N-[2-methyl-5-[4-[4-(1,2,4-oxadiazol-3-yl)phenyl]piperidine-1-carbonyl]phenyl]methanesulfonamide] |
| 85 | C#Cc1ccc(C2CCN(C(=O)c3ccc(C)c(NS(C)(=O)=O)c3)CC2)cc1 [Example 172, N-[5-[4-(4-ethynylphenyl)piperidine-1-carbonyl]-2-methylphenyl]methanesulfonamide] |
| 64 | Cc1ccc(C(=O)N2CCC(c3ccc(-c4ccccn4)cc3)CC2)cc1NS(C)(=O)=O [Example 173, N-[2-methyl-5-[4-(4-pyridin-2-ylphenyl)piperidine-1-carbonyl]phenyl]methanesulfonamide] |
| 92 | Cc1ccc(C(=O)N2CCC(c3ccc(-c4cnccn4)cc3)CC2)cc1NS(C)(=O)=O [Example 174, N-[2-methyl-5-[4-(4-pyrazin-2-ylphenyl)piperidine-1-carbonyl]phenyl]methanesulfonamide] |
| 71 | Cc1ccc(C(=O)N2CCC(c3ccc(-c4ccccc4)cc3)CC2)cc1NS(C)(=O)=O [Example 175, N-[2-methyl-5-[4-(4-phenylphenyl)piperidine-1-carbonyl]phenyl]methanesulfonamide] |
